Like-named read-outs stand apart in the source and are kept apart here.

This assay deals with Male C57 mice. Description: PCP-induced disruption of prepulse inhibition (PPI) of the startle response. The class given is in vivo. As to conditions: for minimal effective dose: Mus musculus, 20 minutes prior to PCP 5 mg/kg IP, read-out: Effective Dose, Prepulse Inhibition Testing. From the text: The phencyclidine (PCP)-induced disruption of pre-pulse inhibition (PPI) has been used to predict efficacy in cognitive impairment and other disorders. In this test, a weaker auditory prestimulus (prepulse) inhibits the reaction of an test organism to a subsequent strong startle stimulus (pulse). Normal PPI functioning in mammals is critical in filtering out irrelevant sensory information, an inhibitory process that is affected in patients with PTSD. A reduction of the cognitive/attention impairment produced in the PPI model can be used as an efficacy measure for compound candidate selection.
For testing of PPI, male C57 mice can be assigned to five dose groups of eight animals per group, and vehicle or test compound can then be administered orally (PO) or subcutaneously (SC) 20 minutes prior to intraperitoneal (IP) administration of vehicle or PCP (5 mg/kg). Ten minutes following PCP administration, the mice are placed into Hamilton-Kinder startle chambers and evaluation of pre-pulse inhibition procedure is performed. Following a five-minute acclimatization period with background white noise (65 decibels), mice were exposed to five different trial types. Trials were presented […] in a quasi-random order, with randomized 5 to 25 second inter-trial intervals. Trials were: stimulus only trial (120 decibel white noise, 50 ms stimulus); two different prepulse+pulse trials in which a 20 ms 5 decibel, or 10 decibel stimuli above a 65 decibel background preceded the 120 decibel pulse by 120 ms; a 10 decibel prepulse without a 120 decibel pulse; and a no stimulus trial, in which only the background noise was presented.
Compounds which are observed to reduce and/or reverse PCP-induced impairment can be selected as candidates for further evaluation. Such reduction is also indicative of memory enhancement, which is also a positive indicator for further development.
Male C57 mice were assigned to five dose groups of eight animals per group, and vehicle or a test compound was administered orally or subcutaneously 20 minutes prior to intraperitoneal administration of vehicle or PCP (5 mg/kg). Ten minutes following PCP administration, the mice were placed into Kinder Scientific startle chambers (Kinder Scientific, Poway, Calif.) and pre-pulse inhibition was evaluated. Following a five-minute acclimatization period with background white noise (65 dB), mice were exposed to five different trial types. Trials were presented in a quasi-random order, with randomized 5 to 25 second inter-trial intervals. The five different trials (presented 10 times each were): stimulus only trial (120 dB white noise, 50 ms stimulus); two different prepulse+pulse trials in which a 20 ms 5 dB or 10 dB stimulus above a 65 dB background preceded the 120 dB pulse by 120 ms; a 10 dB prepulse without a 120 dB pulse; and a no stimulus trial, in which only the background noise was presented.

For the compound `O=C1CCCc2c1ccn2CCN1CCN(c2cccc(Cl)c2)CC1` [Compound A, 1-{2-[4-(3-Chlorophenyl)piperazin-1-yl]ethyl}-1,5,6,7-tetrahydroindol-4-one], the minimal effective dose (sc, subcutaneous) was found to be 3 mg/kg and the minimal effective dose (oral) turned out to be 1 mg/kg. Besides, under “doses of 10 mg/kg, PCP-induced disruption”, the “prepulse inhibition versus control levels (FIG. 1)” value is “inhibition was returned to control levels”. Also, the “minimum effective dose, Prepulse Inhibition (PPI)” value (reversal of PCP-induced disruption, route not given) turned out to be 3 mg/kg.

Source of the values: patent US20090156609A1, “TREATMENT OF POST-TRAUMATIC STRESS DISORDER WITH TETRAHYDROINDOLONE ARYLPIPERZAINE COMPOUNDS” (priority 2007, published 2009).
